Columns and labels:
Test in all cases: relative viability (nuclei count vs DMSO), 5 days (fraction); higher = more cells survive
VX-11e + Trametinib = compound: CC1=CN=C(N=C1C2=CNC(=C2)C(=O)N[C@H](CO)C3=CC(=CC=C3)Cl)NC4=C(C=C(C=C4)F)Cl [VX-11e] + CC(=O)Nc1cccc(-n2c(=O)n(C3CC3)c(=O)c3c(Nc4ccc(I)cc4F)n(C)c(=O)c(C)c32)c1 [Trametinib] (partner 0.02 µM)
How it was run: (§1)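 One day after seeding in 1536-well plates, lung cancer cell lines were dosed by pin tool. Dosing was either single-drug or a fixed anchor-drug dose plus five library-drug doses (not always all listed) in √10 steps. After 5 days, nuclei were stained in one fix-and-stain step and counted on 4× images, and relative viability is the nuclei count of treated wells over that of vehicle wells, given as the median of duplicate plates.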

VX-11e + Lapatinib = compound: CC1=CN=C(N=C1C2=CNC(=C2)C(=O)N[C@H](CO)C3=CC(=CC=C3)Cl)NC4=C(C=C(C=C4)F)Cl [VX-11e] + CS(=O)(=O)CCNCc1ccc(-c2ccc3ncnc(Nc4ccc(OCc5cccc(F)c5)c(Cl)c4)c3c2)o1 [Lapatinib] (partner 2 µM)
How it was run: as §1

VX-11e + Phenformin = compound: CC1=CN=C(N=C1C2=CNC(=C2)C(=O)N[C@H](CO)C3=CC(=CC=C3)Cl)NC4=C(C=C(C=C4)F)Cl [VX-11e] + N=C(N)NC(=N)NCCc1ccccc1 [Phenformin] (partner 250 µM)
How it was run: as §1

VX-11e + Olaparib = compound: CC1=CN=C(N=C1C2=CNC(=C2)C(=O)N[C@H](CO)C3=CC(=CC=C3)Cl)NC4=C(C=C(C=C4)F)Cl [VX-11e] + O=C(c1cc(Cc2n[nH]c(=O)c3ccccc23)ccc1F)N1CCN(C(=O)C2CC2)CC1 [Olaparib] (partner 8 µM)
How it was run: as §1

Cell Line | relative viability (VX-11e + Trametinib; first compound 0.04 µM) | relative viability (VX-11e + Trametinib; first compound 0.1265 µM) | relative viability (VX-11e + Trametinib; first compound 0.4 µM) | relative viability (VX-11e + Trametinib; first compound 1.265 µM) | relative viability (VX-11e + Trametinib; first compound 4 µM) | relative viability (VX-11e + Lapatinib; first compound 0.04 µM) | relative viability (VX-11e + Lapatinib; first compound 0.1265 µM) | relative viability (VX-11e + Lapatinib; first compound 0.4 µM) | relative viability (VX-11e + Lapatinib; first compound 1.265 µM) | relative viability (VX-11e + Lapatinib; first compound 4 µM) | relative viability (VX-11e + Phenformin; first compound 0.04 µM) | relative viability (VX-11e + Phenformin; first compound 0.1265 µM) | relative viability (VX-11e + Phenformin; first compound 0.4 µM) | relative viability (VX-11e + Phenformin; first compound 1.265 µM) | relative viability (VX-11e + Phenformin; first compound 4 µM) | relative viability (VX-11e + Olaparib; first compound 0.04 µM) | relative viability (VX-11e + Olaparib; first compound 0.1265 µM) | relative viability (VX-11e + Olaparib; first compound 0.4 µM) | relative viability (VX-11e + Olaparib; first compound 1.265 µM) | relative viability (VX-11e + Olaparib; first compound 4 µM)
COR-L 105 | 0.425 | 0.459 | 0.369 | 0.423 | 0.403 | 0.354 | 0.324 | 0.396 | 0.355 | 0.381 | 0.489 | 0.487 | 0.391 | 0.366 | 0.227 | 0.666 | 0.694 | 0.708 | 0.839 | 0.396
H3255 | 0.678 | 0.635 | 0.425 | 0.443 | 0.33 | 0.245 | 0.222 | 0.286 | 0.281 | 0.232 | 0.359 | 0.411 | 0.378 | 0.362 | 0.319 | 0.582 | 0.544 | 0.496 | 0.552 | 0.497
LCLC-97TM1 | 0.21 | 0.179 | 0.17 |  | 0.0986 | 1.09 | 0.8 |  | 0.226 | 0.171 | 0.525 | 0.393 | 0.347 | 0.516 | 0.382 | 0.432 | 0.363 | 0.29 |  | 0.103
HCC-366 | 0.353 | 0.344 |  | 0.289 | 0.187 | 1 | 0.971 |  | 0.879 | 0.759 | 0.61 | 0.549 |  | 0.57 | 0.463 | 0.386 | 0.372 |  | 0.271 | 0.208
UMC-11 | 0.563 | 0.626 | 0.563 | 0.357 | 0.551 | 0.546 | 0.94 | 0.712 | 0.602 | 0.758 | 0.291 | 0.309 | 0.28 | 0.301 | 0.283 | 0.377 | 0.369 | 0.331 | 0.335 | 0.38
NCI-H358 | 0.0982 | 0.135 | 0.0751 | 0.121 | 0.112 | 0.41 | 0.425 |  | 0.391 | 0.274 | 0.276 | 0.288 | 0.07 | 0.263 | 0.142 | 0.594 | 0.525 | 0.525 | 0.441 | 0.163
HCC-15 | 0.354 | 0.345 |  | 0.297 | 0.246 | 0.949 | 0.849 | 0.38 | 0.565 | 0.288 | 0.57 | 0.464 |  | 0.211 | 0.162 | 0.869 | 0.794 |  | 0.541 | 0.398
NCI-H1650 | 0.76 | 0.589 | 0.562 | 0.553 | 0.397 | 0.76 | 0.626 | 0.204 | 0.289 | 0.444 | 0.478 | 0.343 |  | 0.315 | 0.295 | 0.685 | 0.851 | 0.814 | 0.793 | 0.807
NCI-H2347 | 0.282 | 0.261 | 0.297 | 0.241 | 0.267 | 1.05 | 0.878 | 0.809 | 0.809 | 0.453 | 0.462 | 0.488 | 0.206 | 0.43 | 0.211 | 0.585 | 0.6 | 0.636 | 0.518 | 0.36
NCI-H647 | 0.51 | 0.358 | 0.211 | 0.163 | 0.217 | 0.863 | 0.902 | 0.546 | 0.476 | 0.353 | 0.677 | 0.442 | 0.249 | 0.266 | 0.196 | 0.627 | 0.591 | 0.617 | 0.422 | 0.303
NCI-H1944 | 0.468 | 0.441 | 0.343 | 0.347 | 0.282 | 0.748 | 0.733 | 0.621 | 0.647 | 0.586 | 0.194 | 0.193 |  | 0.218 | 0.168 | 0.405 | 0.417 | 0.376 | 0.345 | 0.328
SK-MES-1 | 0.566 | 0.486 | 0.399 | 0.338 | 0.27 | 0.452 | 0.414 | 0.47 | 0.436 | 0.282 | 0.693 | 0.64 | 0.694 | 0.618 | 0.368 | 0.732 | 0.636 | 0.826 | 0.493 | 0.265
NCI-H2085 | 0.495 | 0.516 | 0.524 | 0.482 | 0.497 | 0.596 | 0.765 | 0.73 | 0.647 | 0.608 | 0.6 | 0.707 | 0.641 | 0.449 | 0.425 | 0.835 | 0.758 | 0.709 | 0.706 | 0.598

Source: the supplement of paper PMC10307832
